Assay results from ChEMBL document CHEMBL1201862, “PubChem BioAssay data set” (2004).
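Protocol summary: plate cells (96-well), add compound at 5 concentrations, incubate 48 h, interpolate endpoints linearly. GI50 is the concentration that inhibits growth by half.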 Activity calls are given as the source filed them. Rule as the data show it: active = GI50 up to about 1.1 µM and inactive = higher.

Key:
Experiment in all cases: NCI-60 cell line screen, 48 h
[1] = test system: Hs-578T
[2] = test system: NCI-H460
[3] = test system: EKVX
[4] = test system: OVCAR-8
[5] = test system: NCI-H23
[6] = test system: UACC-62
[7] = test system: SK-OV-3
[8] = test system: U-251
[9] = test system: TK-10
[10] = test system: PC-3
[11] = test system: Malme-3M
[12] = test system: UACC-257
[13] = test system: OVCAR-3
[14] = test system: SF-268
[15] = test system: RXF 393
[16] = test system: 786-0
[17] = test system: HCC 2998
[18] = test system: CAKI-1
[19] = test system: OVCAR-5
[20] = test system: COLO 205
[21] = test system: BT-549
[22] = test system: LOX IMVI
[23] = test system: CCRF-CEM
[24] = test system: SF-295
[25] = test system: NCI-H226
[26] = test system: SNB-19
[27] = test system: SK-MEL-5
[28] = test system: HL-60
[29] = test system: HCT-15
[30] = test system: KM12
[31] = test system: A549
[32] = test system: SNB-75
[33] = test system: T47D
[34] = test system: MDA-N
[35] = test system: NCI-H522
[36] = test system: UO-31
[37] = test system: A498
[38] = test system: ACHN
[39] = test system: HT-29
[40] = test system: DU-145
[41] = test system: OVCAR-4
[42] = test system: MDA-MB-435
[43] = test system: SK-MEL-2
[44] = test system: MDA-MB-231
[45] = test system: MCF7
[46] = test system: M14
[47] = test system: HCT-116
[48] = test system: HOP-92
[49] = test system: IGROV-1
[50] = test system: SW-620
[51] = test system: HOP-62
[52] = test system: NCI/ADR-RES
[53] = test system: SK-MEL-28
[54] = test system: SN12C
[55] = test system: SF-539
[56] = test system: SR
[57] = test system: K562
[58] = test system: RPMI-8226
[59] = test system: MOLT-4

COC1=Nc2ccccc2S(=O)(=O)C=C1
GI50 [1]: 18.7 µM (inactive)
GI50 [2]: 19 µM (inactive)
GI50 [3]: 7.69 µM (inactive)
GI50 [4]: 4.35 µM (inactive)
GI50 [5]: 6.35 µM (inactive)
GI50 [6]: 17.9 µM (inactive)
GI50 [7]: 45.7 µM (inactive)
GI50 [8]: 11.4 µM (inactive)
GI50 [9]: 2.75 µM (inactive)
GI50 [10]: 15 µM (inactive)
GI50 [11]: 2.5 µM (inactive)
GI50 [12]: 7.69 µM (inactive)
GI50 [13]: 2.78 µM (inactive)
GI50 [14]: 20.8 µM (inactive)
GI50 [15]: 2.69 µM (inactive)
GI50 [16]: 3.29 µM (inactive)
GI50 [17]: 21.4 µM (inactive)
GI50 [18]: 13.3 µM (inactive)
GI50 [19]: 16.9 µM (inactive)
GI50 [20]: 1.79 µM (inactive)
GI50 [21]: 6.75 µM (inactive)
GI50 [22]: 2.84 µM (inactive)
GI50 [23]: 0.342 µM (active)
GI50 [24]: > 45.4 µM (inactive)
GI50 [25]: > 87.3 µM (inactive)
GI50 [26]: 24.7 µM (inactive)
GI50 [27]: 11.4 µM (inactive)
GI50 [28]: 0.195 µM (active)
GI50 [29]: 3.42 µM
GI50 [30]: 14.8 µM (inactive)
GI50 [31]: 18.2 µM (inactive)
GI50 [32]: 2.31 µM (inactive)
GI50 [33]: 3.66 µM (inactive)
GI50 [34]: 7.4 µM (inactive)
GI50 [35]: 1.21 µM (inactive)
GI50 [36]: 5.46 µM (inactive)
GI50 [37]: 16.8 µM (inactive)
GI50 [38]: 3.07 µM (inactive)
GI50 [39]: 9.89 µM (inactive)
GI50 [40]: 16.8 µM (inactive)
GI50 [41]: 10.1 µM (inactive)
GI50 [42]: 11.4 µM (inactive)
GI50 [43]: 16.6 µM (inactive)
GI50 [44]: 13.2 µM (inactive)
GI50 [45]: 2.61 µM (inactive)
GI50 [46]: 7.64 µM (inactive)
GI50 [47]: 1.74 µM (inactive)
GI50 [48]: 4.81 µM (inactive)
GI50 [49]: 13.7 µM (inactive)
GI50 [50]: 1.73 µM (inactive)
GI50 [51]: 43.3 µM (inactive)
GI50 [52]: 13.1 µM (inactive)
GI50 [53]: 7.01 µM (inactive)
GI50 [54]: 14.4 µM (inactive)
GI50 [55]: 16.7 µM (inactive)

CC(=O)Oc1cc(S(=O)(=O)Nc2nc(N)n[nH]2)c(S)cc1Cl
GI50 [1]: > 100 µM (inactive)
GI50 [2]: > 100 µM (inactive)
GI50 [3]: > 100 µM (inactive)
GI50 [4]: > 100 µM (inactive)
GI50 [5]: > 100 µM (inactive)
GI50 [6]: > 100 µM (inactive)
GI50 [8]: > 100 µM (inactive)
GI50 [9]: > 100 µM (inactive)
GI50 [10]: > 100 µM (inactive)
GI50 [11]: > 100 µM (inactive)
GI50 [12]: > 100 µM (inactive)
GI50 [56]: > 100 µM (inactive)
GI50 [13]: > 100 µM (inactive)
GI50 [57]: > 100 µM (inactive)
GI50 [16]: > 100 µM (inactive)
GI50 [17]: > 100 µM (inactive)
GI50 [18]: > 100 µM (inactive)
GI50 [19]: > 100 µM (inactive)
GI50 [58]: > 100 µM (inactive)
GI50 [20]: > 100 µM (inactive)
GI50 [21]: > 100 µM (inactive)
GI50 [22]: > 100 µM (inactive)
GI50 [23]: > 100 µM (inactive)
GI50 [24]: > 100 µM (inactive)
GI50 [26]: > 100 µM (inactive)
GI50 [27]: > 100 µM (inactive)
GI50 [28]: > 100 µM (inactive)
GI50 [29]: > 100 µM
GI50 [59]: > 100 µM (inactive)
GI50 [30]: > 100 µM (inactive)
GI50 [31]: > 100 µM (inactive)
GI50 [33]: > 100 µM (inactive)
GI50 [34]: > 100 µM (inactive)
GI50 [35]: > 100 µM (inactive)
GI50 [36]: > 100 µM (inactive)
GI50 [37]: > 100 µM (inactive)
GI50 [38]: > 100 µM (inactive)
GI50 [39]: > 100 µM (inactive)
GI50 [40]: > 100 µM (inactive)
GI50 [41]: > 100 µM (inactive)
GI50 [42]: > 100 µM (inactive)
GI50 [43]: > 100 µM (inactive)
GI50 [44]: > 100 µM (inactive)
GI50 [45]: > 100 µM (inactive)
GI50 [46]: > 100 µM (inactive)
GI50 [47]: > 100 µM (inactive)
GI50 [48]: > 100 µM (inactive)
GI50 [49]: > 100 µM (inactive)
GI50 [50]: > 100 µM (inactive)
GI50 [51]: > 100 µM (inactive)
GI50 [52]: > 100 µM (inactive)
GI50 [53]: > 100 µM (inactive)
GI50 [54]: > 100 µM (inactive)
GI50 [55]: > 100 µM (inactive)
